Structures are written as SMILES.

Data set [1] concerns LNCaP. Description: Antiproliferative activity against human LNCAP cells after 96 hrs by propidium iodide staining based fluorescence 2D monolayer assay. It is filed as functional, cell-based.
The conditions of data set [2]: 33000 µM.
Description: Solubility in 100% DMSO at 33 mM at -20 degC
Data set [3] relates to LNCaP. Briefly: Potency index, ratio of bicalutamide IC50 to compound IC50 for human LNCAP cells. The class given is functional.
Data set [4] has as its system CWR22R. Description: Potency index, ratio of bicalutamide IC50 to compound IC50 for human 22Rv1 cells. The class given is functional.
For data set [5], the system named is VCaP. Briefly: Antiproliferative activity against human VCaP cells after 96 hrs by propidium iodide staining based fluorescence 2D monolayer assay. The class given is functional, cell-based.
The subject of data set [6] is VCaP. Briefly: Potency index, ratio of bicalutamide IC50 to compound IC50 for human VCaP cells. The class given is functional.
Data set [7] has as its system DU-145. Description: Antiproliferative activity against human DU145 cells after 96 hrs by propidium iodide staining based fluorescence 2D monolayer assay. The conditions noted are these: DU-145, 96 h. The class given is functional, cell-based.
Data set [8] relates to DU-145. Briefly: Potency index, ratio of bicalutamide IC50 to compound IC50 for human DU145 cells. It is filed as functional.
The conditions of data set [9]: 96 h.
Description: Solubility in RPMI1640 culture medium at <30 uM incubated for 4 days by microscopic analysis
Data set [10] has as its system CWR22R. Briefly: Antiproliferative activity against human 22Rv1 cells after 96 hrs by propidium iodide staining based fluorescence 2D monolayer assay. It is filed as functional, cell-based. The conditions noted are these: 22Rv1, 96 h.
In a further data set the target is T1, Androgen receptor (Rattus norvegicus, UniProt P15207).
T1 sequence (P15207 whole entry): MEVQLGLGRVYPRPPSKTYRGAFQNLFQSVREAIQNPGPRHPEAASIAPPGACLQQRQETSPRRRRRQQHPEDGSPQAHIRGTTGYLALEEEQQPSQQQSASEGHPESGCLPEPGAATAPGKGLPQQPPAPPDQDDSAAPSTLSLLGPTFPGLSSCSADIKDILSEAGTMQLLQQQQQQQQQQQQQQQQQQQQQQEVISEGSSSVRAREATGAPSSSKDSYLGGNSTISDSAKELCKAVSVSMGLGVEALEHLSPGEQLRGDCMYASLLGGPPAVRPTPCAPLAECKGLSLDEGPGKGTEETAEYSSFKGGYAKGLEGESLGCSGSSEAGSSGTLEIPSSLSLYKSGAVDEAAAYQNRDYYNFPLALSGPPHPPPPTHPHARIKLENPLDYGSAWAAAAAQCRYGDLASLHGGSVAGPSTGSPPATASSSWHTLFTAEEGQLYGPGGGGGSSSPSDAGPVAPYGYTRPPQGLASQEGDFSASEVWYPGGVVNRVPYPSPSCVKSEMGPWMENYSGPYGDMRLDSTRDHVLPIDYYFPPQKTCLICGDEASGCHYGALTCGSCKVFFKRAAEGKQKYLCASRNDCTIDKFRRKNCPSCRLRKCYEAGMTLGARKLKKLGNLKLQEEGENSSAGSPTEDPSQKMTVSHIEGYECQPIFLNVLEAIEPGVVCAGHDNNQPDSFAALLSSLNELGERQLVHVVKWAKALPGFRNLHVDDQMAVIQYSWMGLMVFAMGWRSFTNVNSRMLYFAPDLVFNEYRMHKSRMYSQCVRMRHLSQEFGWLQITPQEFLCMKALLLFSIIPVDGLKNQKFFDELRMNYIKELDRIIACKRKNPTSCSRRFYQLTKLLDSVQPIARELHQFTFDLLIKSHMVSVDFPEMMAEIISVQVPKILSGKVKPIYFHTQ
Description: (§1) Antagonist activity at rat androgen receptor fused with DNA-binding domain of GAL4 expressed in AR-UAS-bla GripTite 293 cells assessed as inhibition of R1881-induced receptor activation preincubated for 30 mins followed by R1881 addition measured after 16 to 24 hrs by betalactamase reporter gene assay. It is filed as cell-based.

The target of data set [11] is T2, Androgen receptor (Rattus norvegicus) (UniProt P15207).
T2 sequence (whole entry): T1 sequence (P15207 whole entry)
Described as §1. It is filed as cell-based.

Data set [12] concerns DU-145. Briefly: Antiproliferative activity against human DU145 cells assessed as relative inhibition after 96 hrs by propidium iodide staining based fluorescence 2D monolayer assay. It is filed as functional, cell-based. The settings on record: DU-145, 96 h.
Data set [13] relates to VCaP. Briefly: Antiproliferative activity against human VCaP cells assessed as relative inhibition after 96 hrs by propidium iodide staining based fluorescence 2D monolayer assay. The class given is functional, cell-based.
In data set [14] the test system is HepG2. Briefly: Cytotoxicity against human HepG2 cells assessed as reduction in cell viability at 100 uM after 72 hrs by MTT assay relative to control. The class given is functional.
A further data set in a line: in vitro. The conditions noted are these: human, liver microsomes. For orientation: Liver microsomes are vesicles of endoplasmic reticulum, rich in cytochrome P450 enzymes.
Data set [15] has as its system LNCaP. Briefly: Antiproliferative activity against human LNCAP cells assessed as relative inhibition after 96 hrs by propidium iodide staining based fluorescence 2D monolayer assay. The class given is functional, cell-based.
Data set [16] concerns CWR22R. Description: Antiproliferative activity against human 22Rv1 cells assessed as relative inhibition after 96 hrs by propidium iodide staining based fluorescence 2D monolayer assay. The class given is functional, cell-based. The settings on record: 22Rv1, 96 h.
Data set [17] can be described thus: Efflux ratio of apparent permeability from basolateral to apical side over apical to basolateral side in human Caco2 cells at 10 uM incubated for 120 mins by LC-MS/MS analysis. The conditions noted are these: Caco-2.
The nature of data set [18]: Apparent permeability from apical to basolateral side in human Caco2 cells at 10 uM incubated for 120 mins by LC-MS/MS analysis. The settings on record: Caco-2. For orientation: Passage across Caco-2 layers is used to estimate intestinal permeability.
Data set [19] can be described thus: Half life in human liver microsomes at 3 uM preincubated with compound followed by NADPH addition by LC-MS/MS analysis. The conditions noted are these: liver microsomes.
In data set [20] the test system is HepG2. Description: Cytotoxicity against human HepG2 cells assessed as reduction in cell viability after 72 hrs by MTT assay. The class given is functional, cell-based. The conditions noted are these: HepG2, 72 h; for minimal effective concentration: read-out: MEC.
Data set [21] in a line: Apparent permeability from basolateral to apical side in human Caco2 cells at 10 uM incubated for 120 mins by LC-MS/MS analysis. The conditions noted are these: Caco-2.

One may read the IC50 as the point on the concentration scale where inhibition reaches its midpoint. For `CC(O)(CS(=O)(=O)c1ccc(C(F)(F)F)cc1)C(=O)Nc1ccc(C#N)c(C(F)(F)F)c1` (stereo unspecified), the IC50 is 20.1 µM in the data set on LNCaP [1], 29.1 µM in the data set on VCaP [5], 32.8 µM with DU-145 [7] and 21.5 µM in the data set on CWR22R [10]. Also, the solubility entry in data set [2] and in data set [9] was “Soluble” throughout. Also, the “Ratio IC50” value with LNCaP [3], in the data set with CWR22R [4], in the data set on VCaP [6] and in the data set on DU-145 [8] was 2 throughout.
As for `CC(O)(CS(=O)(=O)c1cccc(C(F)(F)F)c1)C(=O)Nc1ccc([N+](=O)[O-])c(C(F)(F)F)c1` (stereo unspecified), the IC50 in the data set with LNCaP [1] stood at 16.2 µM; with VCaP [5] it was 30.8 µM; in the data set with DU-145 [7], 31.6 µM; on Androgen receptor, 1.07 µM; in the data set on CWR22R [10], 16.1 µM. Besides, the solubility entry in data set [2] and in data set [9] was “Soluble” each time. The “Ratio IC50” value with LNCaP [3], with CWR22R [4], in the data set with VCaP [6] and in the data set with DU-145 [8] was “<=2” in each case. Moreover, the inhibition result in [11] was “Dose-dependent effect”.
Usually IC70 stands for the concentration at which the effect reaches the 70% level. In general, microsomal CLint refers to a measure of how fast metabolising enzymes remove a compound, apart from limits set by blood flow. The low end stands for greater metabolic stability, the high end for faster metabolism. Take `C[C@](O)(CS(=O)(=O)c1ccc(F)cc1)C(=O)Nc1ccc(C#N)c(C(F)(F)F)c1` [(R)-BICALUTAMIDE]: the IC50 in the data set on DU-145 [12] worked out at 41.2 µM; with LNCaP [1] it was 45.2 µM; with VCaP [5], 51.6 µM; in the data set on VCaP [13] it was 39.8 µM; in the data set with DU-145 [7], 45.4 µM; with LNCaP [15], 47 µM. Also, the concentration for half-maximal inhibition (IC50) in the data set with CWR22R [10] was 46.2 to 46.3 µM; with CWR22R [16], 44.6 µM. For the same compound, the IC70 stood at 52.6 µM in the data set on DU-145 [12]; 57.7 µM in the data set on LNCaP [1]; 83.4 µM in the data set with VCaP [5]; 52.1 µM in the data set with VCaP [13]; 56.6 µM with DU-145 [7]; 59.3 µM in the data set with LNCaP [15]. In addition, the IC70 was determined as 58.7 µM with CWR22R [10] and 57.1 µM with CWR22R [16]. In addition, the cell viability reduction with HepG2 [14] turned out to be 77%. In addition, the microsomal CLint at 3 µM in the data set “in vitro” came out at 6.48 µL/min/mg.
In general, efflux ratio refers to a quotient of directional permeabilities that is used to spot active efflux. A word on the Papp A→B: it is how fast a substance crosses the layer from the apical side. By half-life is commonly meant the time in which the quantity being followed falls by half. The AC50 is the concentration giving half of the maximal activity seen. In general, Papp B→A refers to the apparent permeability from the basolateral to the apical side of a cell layer. As for `C[C@](O)(CSc1ccc(C(F)(F)F)cc1)C(=O)Nc1ccc(C#N)c(C(F)(F)F)c1`, the IC50 turned out to be 14.5 µM in the data set with LNCaP [1]; 9.28 µM in the data set with VCaP [5]; 17.2 µM with DU-145 [7]; 2.17 µM at Androgen receptor; 9.75 µM in the data set with CWR22R [10]. Also, the solubility result in data set [2] and in [9] was “Soluble” throughout. Besides, in [17], the efflux ratio at 2 h, 10 µM came to 0.817. In [18], the Papp A→B at 2 h, 10 µM amounted to 5.8 ×10⁻⁶ cm/s. In addition, in data set [19], the half-life at 3 µM turned out to be 0.0933 h. For the same compound, the AC50 in the data set on HepG2 [20] turned out to be 61.2 µM. In addition, in the data set with HepG2 [20], the minimal effective concentration is 49.6 µM. The microsomal CLint at 3 µM in “in vitro” is 248 µL/min/mg. Besides, the inhibition result in data set [11] is “Dose-dependent effect”. For the same compound, the Papp B→A at 2 h, 10 µM in data set [21] turned out to be 4.74 ×10⁻⁶ cm/s.
On to `CC(O)(CS(=O)(=O)c1ccc(C(F)(F)F)cc1)C(=O)Nc1ccc([N+](=O)[O-])c(C(F)(F)F)c1` (stereo unspecified), for which the IC50 was 17.9 µM with LNCaP [1], 31.5 µM with VCaP [5], 24.7 µM with DU-145 [7] and 18.7 µM in the data set with CWR22R [10]. For the same compound, the solubility entry in [2] and in data set [9] was “Soluble” throughout. Moreover, the “Ratio IC50” value in the data set with LNCaP [3], in the data set with CWR22R [4], in the data set on VCaP [6] and in the data set with DU-145 [8] was “<=2” in each case.
As for `CC(O)(COc1ccc(C#N)cc1C(F)(F)F)C(=O)Nc1ccc([N+](=O)[O-])c(C(F)(F)F)c1` (stereo unspecified), the IC50 is 5.69 µM in the data set with LNCaP [1]; 8.38 µM with VCaP [5]; 7.65 µM with DU-145 [7]; 0.0722 µM on Androgen receptor; 5.55 µM in the data set with CWR22R [10]. Besides, the cell viability reduction in the data set with HepG2 [14] is recorded as 98%. The half-life at 3 µM in data set [19] is 8.9 h. Besides, in the data set on HepG2 [20], the AC50 was determined as 20.2 µM. Also, the minimal effective concentration in the data set on HepG2 [20] is 10.6 µM. For the same compound, the microsomal CLint at 3 µM in “in vitro” was determined as 2.59 µL/min/mg. For the same compound, the inhibition entry in data set [11] was “Dose-dependent effect”.

(Values after ChEMBL document CHEMBL4477199, “Design and synthesis of novel bicalutamide and enzalutamide derivatives as antiproliferative agents for the treatment of prostate cancer” (Eur J Med Chem, 2016).)
